Measured values taken from patent publication US9593156B2 (priority 2012, dated 2017).
Read-outs that look alike come from different tables or passages of the source. Ends that are not written are not given here.

Key:
[1] = target: T1, type B insulin receptor (IR-B) (Homo sapiens, UniProt P06213); assay: Receptor kinase activity (phosphorylation) assay, type B insulin receptor; assay type: cell-based; settings: for % Insulin Activity IR-B: Table 12
T1 construct: expressed in transfected cells; host or cells: HEK293

IGF-1 receptor = IGF-1 receptor (Homo sapiens, UniProt P08069); assay: Receptor kinase activity (phosphorylation) assay, IGF-1 receptor; assay type: cell-based; parameters: expressed in transfected cells; host or cells: HEK293; settings: for % Insulin Activity IGF-1 R: Table 12
insulin receptor = insulin receptor (Homo sapiens, UniProt P06213); assay: Insulin receptor competition binding assay (scintillation proximity); parameters: expressed in transfected cells; plasma membrane fragments
[2] = target: T2, type A insulin receptor (IR-A) (Homo sapiens, UniProt P06213); assay: Receptor kinase activity (phosphorylation) assay, type A insulin receptor; assay type: cell-based; settings: for % Insulin Activity IR-A: Table 12
T2 construct: expressed in transfected cells; host or cells: HEK293

## B^1(A5H10Y16L17)25-C^1-A^1(H8N18N21) [Ala,B5]
[1]
  IR-B: 5.7%
IGF-1 receptor
  IGF-1 R: 2.5%

## CC[C@H](C)[C@H](NC(=O)CN)C(=O)N[C@H](C(=O)N[C@@H](CC(=O)O)C(=O)N[C@@H](CCC(=O)O)C(=O)N[C@H]1CSSC[C@@H]2NC(=O)[C@H](CO)NC(=O)[C@H](CCCNC(=N)N)NC(=O)[C@H](Cc3ccccc3)NC(=O)[C@H](CSSC[C@H](NC(=O)[C@H](CC(C)C)NC(=O)[C@@H](NC(=O)[C@H](CCC(=O)O)NC(=O)[C@@H]3CCCN3C(=O)CN)[C@@H](C)O)C(=O)NCC(=O)N[C@@H](C)C(=O)N[C@@H](CCC(=O)O)C(=O)N[C@@H](CC(C)C)C(=O)N[C@@H](C(C)C)C(=O)N[C@@H](CC(=O)O)C(=O)N[C@@H](C)C(=O)N[C@@H](CC(C)C)C(=O)N[C@@H](Cc3ccc(O)cc3)C(=O)N[C@@H](CC(C)C)C(=O)N[C@@H](C(C)C)C(=O)N[C@H](C(=O)NCC(=O)N[C@@H](CC(=O)O)C(=O)N[C@@H](CCCNC(=N)N)C(=O)NCC(=O)N[C@@H](Cc3ccccc3)C(=O)N[C@@H](Cc3ccc(O)cc3)C(=O)N[C@@H](Cc3ccccc3)C(=O)N[C@@H](CC(N)=O)C(=O)N[C@@H](CCCCN)C(=O)N3CCC[C@H]3C(=O)N[C@H](C(N)=O)[C@@H](C)O)CSSC[C@@H](C(=O)N[C@@H](C)C(N)=O)NC(=O)[C@H](Cc3ccc(O)cc3)NC(=O)[C@H](CCSC)NC(=O)[C@H](CCC(=O)O)NC(=O)[C@H](CC(C)C)NC(=O)[C@H](CCCNC(=N)N)NC(=O)[C@H](CCCNC(=N)N)NC(=O)[C@H](CC(C)C)NC(=O)[C@H](CC(=O)O)NC2=O)NC1=O)C(C)C [IGF1 (Y^B16L^B17)]
Insulin receptor; Table 6
  % of Insulin Activity: 262%

## B2, B22-PEG10K di-PEGylated MIU-35 (GPEHLCGAELVDALYLVCGDK(PEG 10 kDa)GFYGYGSSSRKAPQTGIVDECCFRSCDLRRLENYCN; not fully specified (N-terminus); ends and bridges not checked; also: PEG10K at B2) [MIU-68]
[2]
  % Insulin Activity IR-A: 0.4%
[1]
  % Insulin Activity IR-B: 0.1%
IGF-1 receptor
  % Insulin Activity IGF-1 R: <0.1%

## GE5W-B^1(A5H10Y16L17)25-C^1-A^1(H8N18N21) [GE5W-Ala,B5]
[2]
  IR-A: 8.6%
[1]
  IR-B: 2.3%
IGF-1 receptor
  IGF-1 R: 0.3%

## B2, C8-PEG10K di-PEGylated MIU-35 (GPEHLCGAELVDALYLVCGDRGFYGYGSSSRK(PEG 10 kDa)APQTGIVDECCFRSCDLRRLENYCN; not fully specified (N-terminus); ends and bridges not checked; also: PEG10K at B2) [MIU-67]
[2]
  % Insulin Activity IR-A: 0.2%
[1]
  % Insulin Activity IR-B: 0.1%
IGF-1 receptor
  % Insulin Activity IGF-1 R: <0.1%

## CC[C@H](C)[C@H](NC(=O)CN)C(=O)N[C@H](C(=O)N[C@@H](CC(=O)O)C(=O)N[C@@H](CCC(=O)O)C(=O)N[C@H]1CSSC[C@@H]2NC(=O)[C@H](CO)NC(=O)[C@H](CCCNC(=N)N)NC(=O)[C@H](Cc3ccccc3)NC(=O)[C@H](CSSC[C@H](NC(=O)[C@H](CC(C)C)NC(=O)[C@@H](NC(=O)[C@H](CCC(=O)O)NC(=O)[C@@H]3CCCN3C(=O)CN)[C@@H](C)O)C(=O)NCC(=O)N[C@@H](C)C(=O)N[C@@H](CCC(=O)O)C(=O)N[C@@H](CC(C)C)C(=O)N[C@@H](C(C)C)C(=O)N[C@@H](CC(=O)O)C(=O)N[C@@H](C)C(=O)N[C@@H](CC(C)C)C(=O)N[C@@H](Cc3ccc(O)cc3)C(=O)N[C@@H](CC(C)C)C(=O)N[C@@H](C(C)C)C(=O)N[C@H](C(=O)NCC(=O)N[C@@H](CC(=O)O)C(=O)N[C@@H](CCCNC(=N)N)C(=O)NCC(=O)N[C@@H](Cc3ccccc3)C(=O)N[C@@H](Cc3ccc(O)cc3)C(=O)N[C@@H](Cc3ccccc3)C(=O)N[C@@H](CC(N)=O)C(=O)N[C@@H](CCCCN)C(=O)N3CCC[C@H]3C(=O)N[C@H](C(N)=O)[C@@H](C)O)CSSC[C@@H](C(=O)N[C@@H](C)C(N)=O)NC(=O)[C@H](Cc3ccc(N)cc3)NC(=O)[C@H](CCSC)NC(=O)[C@H](CCC(=O)O)NC(=O)[C@H](CC(C)C)NC(=O)[C@H](CCCNC(=N)N)NC(=O)[C@H](CCCNC(=N)N)NC(=O)[C@H](CC(C)C)NC(=O)[C@H](CC(=O)O)NC2=O)NC1=O)C(C)C [IGF1 (Y^B16L^B17) (p-NH2—F)^A19 amide]
Insulin receptor; Table 7
  % of Insulin Activity: 22%

## B2, A14-PEG10K di-PEGylated MIU-35 (GPEHLCGAELVDALYLVCGDRGFYGYGSSSRKAPQTGIVDECCFRSCDLK(PEG 10 kDa)RLENYCN; not fully specified (N-terminus); ends and bridges not checked; also: PEG10K at B2) [MIU-69]
[2]
  % Insulin Activity IR-A: 1.0%
[1]
  % Insulin Activity IR-B: 0.5%
IGF-1 receptor
  % Insulin Activity IGF-1 R: <0.1%

## CC[C@H](C)[C@H](NC(=O)CN)C(=O)N[C@H](C(=O)N[C@@H](CC(=O)O)C(=O)N[C@@H](CCC(=O)O)C(=O)N[C@H]1CSSC[C@@H]2NC(=O)[C@H](CO)NC(=O)[C@H](C)NC(=O)[C@H](Cc3c[nH]cn3)NC(=O)[C@H](CSSC[C@H](NC(=O)[C@H](CC(C)C)NC(=O)[C@H](Cc3c[nH]cn3)NC(=O)[C@H](CCC(=O)O)NC(=O)[C@@H]3CCCN3C(=O)CN)C(=O)NCC(=O)N[C@@H](C)C(=O)N[C@@H](CC(=O)O)C(=O)N[C@@H](CC(C)C)C(=O)N[C@@H](C(C)C)C(=O)N[C@@H](CC(=O)O)C(=O)N[C@@H](C)C(=O)N[C@@H](CC(C)C)C(=O)N[C@@H](Cc3ccc(O)cc3)C(=O)N[C@@H](CC(C)C)C(=O)N[C@@H](C(C)C)C(=O)N[C@H](C(=O)NCC(=O)N[C@@H](CC(=O)O)C(=O)N[C@@H](C)C(=O)NCC(=O)N[C@@H](Cc3ccccc3)C(=O)N[C@@H](Cc3ccc(O)cc3)C(N)=O)CSSC[C@@H](C(=O)N[C@@H](CC(N)=O)C(=O)O)NC(=O)[C@H](Cc3ccc(O)cc3)NC(=O)[C@H](CC[S+](C)[O-])NC(=O)[C@H](CCC(=O)O)NC(=O)[C@H](CC(C)C)NC(=O)[C@H](CCCNC(=N)N)NC(=O)[C@H](CCCNC(=N)N)NC(=O)[C@H](CC(C)C)NC(=O)[C@H](CC(=O)O)NC2=O)NC1=O)C(C)C (stereo partly shown)
Insulin receptor
  % insulin (in test): 400.7%

## B^1(H5,10Y16L17A24)25-C^1-A^1(H8N18,N21) [Ala,B24]
[2]
  IR-A: 0.1%
[1]
  IR-B: 0.4%
IGF-1 receptor
  IGF-1 R: 0.3%

## CC[C@H](C)[C@H](NC(=O)CN)C(=O)N[C@H](C(=O)N[C@@H](CC(=O)O)C(=O)N[C@@H](CCC(=O)O)C(=O)N[C@H]1CSSC[C@@H]2NC(=O)[C@H](CO)NC(=O)[C@H](CCCNC(=N)N)NC(=O)[C@H](Cc3ccccc3)NC(=O)[C@H](CSSC[C@H](NC(=O)[C@H](CC(C)C)NC(=O)[C@H](Cc3c[nH]cn3)NC(=O)[C@H](CCC(=O)O)NC(=O)[C@@H]3CCCN3C(=O)CN)C(=O)NCC(=O)N[C@@H](C)C(=O)N[C@@H](CC(=O)O)C(=O)N[C@@H](CC(C)C)C(=O)N[C@@H](C(C)C)C(=O)N[C@@H](CC(=O)O)C(=O)N[C@@H](C)C(=O)N[C@@H](CC(C)C)C(=O)N[C@@H](Cc3ccc(O)cc3)C(=O)N[C@@H](CC(C)C)C(=O)N[C@@H](C(C)C)C(=O)N[C@H](C(=O)NCC(=O)N[C@@H](CC(=O)O)C(=O)N[C@@H](CCCNC(=N)N)C(=O)NCC(=O)N[C@@H](Cc3ccccc3)C(=O)N[C@@H](Cc3ccc(O)cc3)C(N)=O)CSSC[C@@H](C(=O)N[C@@H](C)C(N)=O)NC(=O)[C@H](Cc3ccc(O)cc3)NC(=O)[C@H](CC[S+](C)[O-])NC(=O)[C@H](CCC(=O)O)NC(=O)[C@H](CC(C)C)NC(=O)[C@H](CCCNC(=N)N)NC(=O)[C@H](CCCNC(=N)N)NC(=O)[C@H](CC(C)C)NC(=O)[C@H](CC(=O)O)NC2=O)NC1=O)C(C)C (stereo partly shown) [IGF-1 A:B(H5D10Y16L17) (S═O) DPI]
Insulin receptor; Table 9, Insulin Receptor
  % insulin (in test): 316.0%

## CC[C@H](C)[C@H](NC(=O)CNC(=O)[C@@H]1CCCN1C(=O)[C@H](C)N)C(=O)N[C@H](C(=O)N[C@@H](CC(=O)O)C(=O)N[C@@H](CCC(=O)O)C(=O)N[C@H]1CSSC[C@@H]2NC(=O)[C@H](CO)NC(=O)[C@H](CCCNC(=N)N)NC(=O)[C@H](Cc3ccccc3)NC(=O)[C@H](CSSC[C@H](NC(=O)[C@H](CC(C)C)NC(=O)[C@@H](NC(=O)[C@H](CCC(=O)O)NC(=O)[C@@H]3CCCN3C(=O)CN)[C@@H](C)O)C(=O)NCC(=O)N[C@@H](C)C(=O)N[C@@H](CCC(=O)O)C(=O)N[C@@H](CC(C)C)C(=O)N[C@@H](C(C)C)C(=O)N[C@@H](CC(=O)O)C(=O)N[C@@H](C)C(=O)N[C@@H](CC(C)C)C(=O)N[C@@H](Cc3ccc(O)cc3)C(=O)N[C@@H](CC(C)C)C(=O)N[C@@H](C(C)C)C(=O)N[C@H](C(=O)NCC(=O)N[C@@H](CC(=O)O)C(=O)N[C@@H](CCCNC(=N)N)C(=O)NCC(=O)N[C@@H](Cc3ccccc3)C(=O)N[C@@H](Cc3ccc(O)cc3)C(=O)N[C@@H](Cc3ccccc3)C(=O)N[C@@H](CC(N)=O)C(=O)N[C@@H](CCCCN)C(=O)N3CCC[C@H]3C(=O)N[C@H](C(N)=O)[C@@H](C)O)CSSC[C@@H](C(=O)N[C@@H](C)C(N)=O)NC(=O)[C@H](Cc3ccc(O)cc3)NC(=O)[C@H](CCSC)NC(=O)[C@H](CCC(=O)O)NC(=O)[C@H](CC(C)C)NC(=O)[C@H](CCCNC(=N)N)NC(=O)[C@H](CCCNC(=N)N)NC(=O)[C@H](CC(C)C)NC(=O)[C@H](CC(=O)O)NC2=O)NC1=O)C(C)C [IGF1 (Y^B16L^B17) (AlaPro)^A-1,0]
Insulin receptor; Table 8
  % of Insulin Activity: 37.12%

## B^1(H5,10Y16L17R29)30-C^1des9-12-A^1(H8,N18,21) (GPEHLCGAHLVDALYLVCGDRGFYFNKRTGYGSSSRRGIVDECCHRSCDLRRLENYCN) [MIU-43]
[2]; Table 14
  IR-A: 97.5%
[1]; Table 14
  IR-B: 16.7%
IGF-1 receptor; Table 14
  IGF-1 R: 14.2%
